Data reported in patent US7705188B2 (Arizona Board of Regents, a body corporate of the State of …, priority 2002, dated 2010).
Converted amounts (≈) assume the structure as drawn. Read-outs that look alike come from different tables or passages of the source.

What was measured:
[1] = system: BXPC-3; test: Cytotoxicity, pancreas-a BXPC-3; assay type: cell-based, human; conditions: for GI50: Homo sapiens, BXPC-3, BXPC-3
[2] = system: SF-268; test: Cytotoxicity, CNS SF-268; assay type: cell-based, human; conditions: for GI50: Homo sapiens
[3] = system: DU-145; test: Cytotoxicity, prostate DU-145; assay type: cell-based, human; conditions: for GI50: Homo sapiens, DU-145, DU-145
[4] = system: tubulin; test: Inhibition of [3H]colchicine binding to tubulin
Experimental: (§1) Extent of assembly after 20 min at 30° C. was the parameter measured. The colchicine binding assay was performed as earlier reported.^27 The tubulin concentration was 1.0 μM, the [3H] colchicine concentration was 5.0 μM, and the potential inhibitor concentrations were as indicated. Binding of colchicine was measured following a 10 min incubation at 37° C.

[5] = system: NCI-H460; test: Cytotoxicity, lung-NSC NCI-H460; assay type: cell-based, human; conditions: for GI50: Homo sapiens
[6] = system: KM201.2; test: Cytotoxicity, colon KM201.2; assay type: cell-based, human; conditions: for GI50: Homo sapiens
[7] = system: tubulin; test: Inhibition of tubulin polymerization; assay type: biochemical; conditions: tubulin 10 μM; extent of assembly after 20 min at 30° C.; read-out: Inhibition of tubulin Polymerization IC50 (μM) ± SD
Experimental: as §1

[8] = system: P-388 and human tumor cell lines; test: Cytotoxicity, summary over P-388 and human tumor cell lines; assay type: cell-based
[9] = system: Enterobacter cloacae; test: Antimicrobial broth microdilution, MIC; assay type: cell-based; conditions: for MIC: read-out: Minimum inhibitory concentration
Excerpt: (§2) Stilbene production has been correlated with the resistance of grape leaves to fungal infection.

[10] = system: Candida albicans; test: Antimicrobial broth microdilution, MIC; assay type: cell-based; conditions: for MIC: read-out: Minimum inhibitory concentration
Excerpt: as §2

[11] = system: Enterococcus faecalis; test: Antimicrobial broth microdilution, MIC; assay type: cell-based; conditions: for MIC: read-out: Minimum inhibitory concentration
Excerpt: as §2

[12] = system: Streptococcus pneumoniae; test: Antimicrobial broth microdilution, MIC; assay type: cell-based; conditions: for MIC: read-out: Minimum inhibitory concentration
Excerpt: as §2

[13] = system: Micrococcus luteus; test: Antimicrobial broth microdilution, MIC; assay type: cell-based; conditions: for MIC: read-out: Minimum inhibitory concentration
Excerpt: as §2

[14] = system: Staphylococcus aureus; test: Antimicrobial broth microdilution, MIC; assay type: cell-based; conditions: for MIC: read-out: Minimum inhibitory concentration
Excerpt: as §2

[15] = system: Stenotrophomonas maltophilia; test: Antimicrobial broth microdilution, MIC; assay type: cell-based; conditions: for MIC: read-out: Minimum inhibitory concentration
Excerpt: as §2

[16] = system: Escherichla coli; test: Antimicrobial broth microdilution, MIC; assay type: cell-based; conditions: Escherichla coli; for MIC: read-out: Minimum inhibitory concentration
Excerpt: as §2

[17] = system: MCF-7; test: Cytotoxicity, breast MCF-7; assay type: cell-based, human; conditions: for GI50: Homo sapiens, MCF7
[18] = system: Cryptococcus neoformans; test: Antimicrobial broth microdilution, MIC; assay type: cell-based; conditions: for MIC: read-out: Minimum inhibitory concentration
Excerpt: as §2

[19] = system: Neisseria gonorrhoeae; test: Antimicrobial broth microdilution, MIC; assay type: cell-based; conditions: Neisseria gonorrhoeae; for MIC: read-out: Minimum inhibitory concentration
Excerpt: as §2

[20] = tubulin 1.0 μM, [3H]colchicine 5.0 μM, 10 min at 37° C.
[21] = NCI-H460, read-out: Lung-NSC NCI-H460 GI50, NCI-H460
[22] = SF-268, SF-268, read-out: CNS SF-268 GI50
[23] = NCI-H460, NCI-H460, read-out: Lung-NSC NCI-H460 GI50
[24] = KM201.2, read-out: Colon KM201.2 GI50

SMILES | Pancreas-a BXPC-3 GI50 [1] | CNS SF-268 GI50 [2] | Prostate DU-145 GI50 [3] | MIC [9] | MIC [10] | MIC ([11]; first line (r12)) | MIC ([11]; second line (r15)) | MIC [12] | MIC [13] | MIC [14] | MIC [15] | MIC [16] | MIC [18] | MIC [19] | GI50 [1] | GI50 [2, 22] | GI50 [3] | GI50 [5, 23] | GI50 [17] | GI50 [6, 24] | also measured
COc1ccc(/C=C\c2cc(OC)c(OC)c(OC)c2)cc1O [Compound 2a, combretastatin A-4, reference compound] | 0.39 µg/mL | >0.01 µg/mL | 0.0008 µg/mL |  |  |  |  |  |  |  |  |  |  |  |  |  |  |  |  |  | Inhibition of colchicine binding % Inhibition, 2 μM inhibitor [4, 20]: 91%; Lung-NSC NCI-H460 GI50 [5]: 0.0006 µg/mL; Colon KM201.2 GI50 ([6]; KM201.2): 0.34 µg/mL; IC50 [7]: 2 ± 0.2 µM
COc1ccc(C(=O)c2cc(OC)c(OC)c(OC)c2)cc1O [Compound 2c, phenstatin, reference compound] |  |  |  |  |  |  |  |  |  |  |  |  |  |  |  |  |  |  |  |  | GI50 ([2]; SF-268, read-out: CNS SF-268 GI50, SF-268): 0.052 µg/mL (≈ 0.163 µM); Inhibition of colchicine binding, in words [4]: less potent than combretastatin A-4 (2a); Inhibition of colchicine binding % Inhibition, 2 μM inhibitor [4, 20]: 73 ± 1%; Inhibition of colchicine binding % Inhibition, 5 μM inhibitor ([4]; 5 μM inhibitor, tubulin 1.0 μM, [3H]colchicine 5.0 μM, 10 min at 37° C.): 85 ± 2%; GI50 [5, 21]: 0.0057 µg/mL (≈ 0.0179 µM); GI50 ([6]; read-out: Colon KM201.2 GI50, KM201.2): 0.04 µg/mL (≈ 0.126 µM); IC50 [7]: 1.1 ± 0.1 µM
COc1ccc(C=Cc2cc(O)cc(OC)c2)cc1 [Compound 14h, 3-hydroxy-4′,5-dimethoxystilbene] |  |  |  | > 64 µg/mL | > 64 µg/mL | > 64 µg/mL | > 64 µg/mL | > 64 µg/mL | 16 to 64 µg/mL (≈ 62.4 to 250 µM) | > 64 µg/mL | > 64 µg/mL | > 64 µg/mL |  |  |  |  |  |  |  |  | Cytotoxicity against cancer cell lines, comparison in words [8]: slightly less active than their cis counterparts
COc1ccc(C=Cc2cc(O)cc(O)c2)cc1 [Compound 14k, 3,5-dihydroxy-4′-methoxy-stilbene] | 14.1 µg/mL | 15.6 µg/mL | 10.6 µg/mL | > 64 µg/mL | > 64 µg/mL | > 64 µg/mL | > 64 µg/mL | > 64 µg/mL | > 64 µg/mL | > 64 µg/mL | > 64 µg/mL | > 64 µg/mL | > 64 µg/mL | 16 µg/mL (≈ 66 µM) |  |  |  |  |  |  | GI50 [5, 21]: 6.4 µg/mL (≈ 26.4 µM); Cytotoxicity against cancer cell lines, comparison in words [8]: comparable to that of resveratrol; Breast MCF-7 GI50 [17]: 12.7 µg/mL; Colon KM201.2 GI50 ([6]; KM201.2): 17.7 µg/mL
COc1cc(OC)cc(C(O)c2ccc(O)cc2)c1 (stereo not drawn) [Compound 15c, 4′-Hydroxy-3,5-dimethoxybenzhydrol] |  |  |  | > 64 µg/mL | > 64 µg/mL | > 64 µg/mL | > 64 µg/mL | 16 µg/mL (≈ 61.5 µM) | > 64 µg/mL | > 64 µg/mL | > 64 µg/mL | > 64 µg/mL | > 64 µg/mL | 2 to 4 µg/mL (≈ 7.68 to 15.4 µM) | 1.3 µg/mL (≈ 4.99 µM) | 0.65 µg/mL (≈ 2.5 µM) | 5.8 µg/mL (≈ 22.3 µM) | 2.3 µg/mL (≈ 8.84 µM) | 2 µg/mL (≈ 7.68 µM) | 5.3 µg/mL (≈ 20.4 µM) | 
COc1cc(OC)cc(C(=O)c2ccc(O)cc2)c1 [Compound 16c] | 4.0 µg/mL | 3.8 µg/mL | 4.1 µg/mL |  |  |  |  |  |  |  |  |  |  |  |  |  |  |  |  |  | Lung-NSC NCI-H460 GI50 [5]: 3.0 µg/mL; Breast MCF-7 GI50 [17]: 2.2 µg/mL; Colon KM201.2 GI50 ([6]; KM201.2): 3.6 µg/mL; Minimum inhibitory concentration [9]: * (no inhibition at 64 μg/ml); Minimum inhibitory concentration [18]: * (no inhibition at 64 μg/ml); Minimum inhibitory concentration [10]: * (no inhibition at 64 μg/ml); Minimum inhibitory concentration [19]: 32 to 64 µg/mL; Minimum inhibitory concentration ([11]; first line (r12)): * (no inhibition at 64 μg/ml); Minimum inhibitory concentration ([11]; second line (r15)): * (no inhibition at 64 μg/ml); Minimum inhibitory concentration [12]: 64 µg/mL (≈ 248 µM); Minimum inhibitory concentration [13]: * (no inhibition at 64 μg/ml); Minimum inhibitory concentration [14]: * (no inhibition at 64 μg/ml); Minimum inhibitory concentration [15]: * (no inhibition at 64 μg/ml); Minimum inhibitory concentration [16]: * (no inhibition at 64 μg/ml)
COc1ccc(C(=O)c2cc(O)cc(O)c2)cc1 [Compound 16e] |  |  |  |  |  |  |  |  |  |  |  |  |  |  |  |  |  |  |  |  | Minimum inhibitory concentration [9]: * (no inhibition at 64 μg/ml); Minimum inhibitory concentration [18]: * (no inhibition at 64 μg/ml); Minimum inhibitory concentration [10]: * (no inhibition at 64 μg/ml); Minimum inhibitory concentration [19]: * (no inhibition at 64 μg/ml); Minimum inhibitory concentration ([11]; first line (r12)): * (no inhibition at 64 μg/ml); Minimum inhibitory concentration ([11]; second line (r15)): * (no inhibition at 64 μg/ml); Minimum inhibitory concentration [12]: * (no inhibition at 64 μg/ml); Minimum inhibitory concentration [13]: * (no inhibition at 64 μg/ml); Minimum inhibitory concentration [14]: * (no inhibition at 64 μg/ml); Minimum inhibitory concentration [15]: * (no inhibition at 64 μg/ml); Minimum inhibitory concentration [16]: * (no inhibition at 64 μg/ml)
O=C(c1ccc(O)cc1)c1cc(O)cc(O)c1 [Compound 16g, 3,4′,5-trihydroxybenzophenone] |  |  |  | > 64 µg/mL | > 64 µg/mL | > 64 µg/mL | > 64 µg/mL | 64 µg/mL (≈ 278 µM) | > 64 µg/mL | > 64 µg/mL | > 64 µg/mL | > 64 µg/mL | > 64 µg/mL | > 64 µg/mL | 20.5 µg/mL (≈ 89 µM) | 22.3 µg/mL (≈ 96.9 µM) | 15 µg/mL (≈ 65.2 µM) | 25 µg/mL (≈ 109 µM) | 30.6 µg/mL (≈ 133 µM) | 24.5 µg/mL (≈ 106 µM) | 
COc1cc(O)cc(C(=O)c2ccc(O)cc2)c1 [Compound 16i, 3,4′-dihydroxy-5-methoxybenzophenone] |  |  |  | > 64 µg/mL | > 64 µg/mL | > 64 µg/mL | > 64 µg/mL | 64 µg/mL (≈ 262 µM) | > 64 µg/mL | > 64 µg/mL | > 64 µg/mL | > 64 µg/mL | > 64 µg/mL | 32 µg/mL (≈ 131 µM) | 21.7 µg/mL (≈ 88.8 µM) | 26.4 µg/mL (≈ 108 µM) | 16.5 µg/mL (≈ 67.6 µM) | 12.1 µg/mL (≈ 49.5 µM) | 26.8 µg/mL (≈ 110 µM) | 31.6 µg/mL (≈ 129 µM) | 
COc1ccc(C(=O)c2cc(O)cc(OC)c2)cc1 [Compound 16k, 4′,5-dimethoxy-3-hydroxybenzophenone] |  |  |  | > 64 µg/mL | > 64 µg/mL | > 64 µg/mL | > 64 µg/mL | 32 to 64 µg/mL (≈ 124 to 248 µM) | > 64 µg/mL | > 64 µg/mL | > 64 µg/mL | > 64 µg/mL | 64 µg/mL (≈ 248 µM) | 16 to 32 µg/mL (≈ 61.9 to 124 µM) | 15 µg/mL (≈ 58.1 µM) | 13.9 µg/mL (≈ 53.8 µM) | 12.6 µg/mL (≈ 48.8 µM) | 10.3 µg/mL (≈ 39.9 µM) | 14.2 µg/mL (≈ 55 µM) | 16.2 µg/mL (≈ 62.7 µM) | 
